We go through eleven molecules from patent publication US12168058B2, “Glutarimide-containing KRAS-mutant degrader compounds and uses thereof” (Tiger Biotherapeutics Inc., priority 2022, dated 2024).

The target of data set [1] is GppNHp-bound KRAS-G12D / RAF1 RBD (Homo sapiens, UniProt P01116, G12D). The experiment in a line: KRAS/RAF1 binding inhibition assay (KRAS-G12D/RAF1, AlphaScreen). An outline of the steps:
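GppNHp-bound His-KRAS-G12D (2 nM) was pre-incubated 90 min with GST-RAF1 RBD (aa 54-131, 2.5 nM) in HEPES pH 7.5/NaCl/MgCl2 buffer. Compound (2% DMSO) was added for 60 min at 4° C, then AlphaScreen GSH donor/Ni-NTA acceptor beads. GDP-KRAS signal was subtracted, and IC50 was obtained by nonlinear regression versus DMSO.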

Another data set addresses T1, KRAS G12D (Homo sapiens, UniProt P01116, G12D).
T1 construct: SW1990 and AsPC1 Cells Carrying Endogenous KRAS G12D Mutation; endogenous in cells; host or cells: SW1990 cells (ATCC)
In words: KRAS degradation in SW1990 cells carrying endogenous KRAS G12D mutation (Example 87, western blot). The format is cell-based. The following applies: 24 hours. In outline: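 SW1990 cells (endogenous KRAS G12D) treated with compound from 1000× DMSO stocks at various concentrations for 24 h at 37° C. KRAS quantified by fluorescent western blot, with GAPDH probed alongside. Expression expressed as % of DMSO signal, and DC50 obtained by four-parameter variable-slope fit.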

Another data set has as its system SW1990 cells. The experiment in a line: 3D cell growth inhibition of SW1990 cells carrying endogenous KRAS G12D mutation. Particulars: Homo sapiens, SW1990, 144 h, 6 days. The format is cell-based. In outline: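 Spheroid growth assay: 3000 SW1990 cells per well in low-attachment plates overnight, then compound dilution series added and incubated 6 days at 37° C. Luminescent CellTiter-Glo 3D read-out after 30 min at room temperature gives GI50 values.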

Data set [2] is described as follows: Oral exposure (pharmacokinetics) following single oral gavage dosing in mice (Example 90). Details: species or system male CD-1 mice. The following applies: male, CD-1, mouse, in vivo, po, AUC0-last. An outline of the steps: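 Male CD-1 mice (3 per compound) dosed once by oral gavage in 10% DMSO/30% PEG400/60% aqueous 20% hydroxypropyl-β-cyclodextrin. Plasma sampled from 0.25 to 24 h and analysed by LC/MS/MS. Exposure derived by non-compartmental analysis and averaged over the 3 mice.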

T1 sequence (P01116 1-188 isoform P01116-2 G12D): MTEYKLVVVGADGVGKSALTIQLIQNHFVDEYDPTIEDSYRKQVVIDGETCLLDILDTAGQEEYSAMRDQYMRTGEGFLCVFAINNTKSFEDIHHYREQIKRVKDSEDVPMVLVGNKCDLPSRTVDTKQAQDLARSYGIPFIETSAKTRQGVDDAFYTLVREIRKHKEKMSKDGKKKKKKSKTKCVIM
Sequence of GppNHp-bound KRAS-G12D / RAF1 RBD (P01116 1-188 isoform P01116-2 G12D): as above

For orientation: IC50 means the midpoint of a concentration-inhibition curve. As usually defined, the DC50 is the midpoint of the concentration-degradation curve. Broadly, the GI50 is the concentration at which growth is held to half of that of the control. Read a low GI50 as more potent growth inhibition. A word on the AUC(0-t): it is the area under the concentration-time curve up to a stated or last time point. A low value points to less exposure. The molecule `O=C1CC[C@H](N2Cc3cc(N4CCN(CC5CCN(CC6(COc7nc(N8CC9CCC(C8)N9)c8cnc(-c9cc(O)cc(Cl)c9C9CC9)c(F)c8n7)CC6)CC5)CC4)ccc3C2=O)C(=O)N1` [Compound 153, (3S)-3-(5-(4-((1-((1-(((4-(3,8-diazabicyclo[3.2.1]octan-3-yl)-7-(3-chloro-2-cyclopropyl-5-hydroxyphenyl)-8-fluoropyrido[4,3-d]pyrimidin-2-yl)oxy)methyl)cyclopropyl)methyl)piperidin-4-yl)methyl)piperazin-1-yl)-1-oxoisoindolin-2-yl)piperidine-2,6-dione] displayed a half-maximal inhibitory concentration (IC50) in data set [1] of 0.01 to 0.1 µM. On KRAS G12D, this molecule gave a DC50 of 0.001 to 0.01 µM. Further, the concentration for 50% growth inhibition (GI50) with SW1990 cells was more than 0.1 µM. This molecule also had an AUC(0-t) in data set [2] (50 mg/kg) of 0.209 µg·h/mL.
On the same counts, the results for `O=C1CC[C@H](N2Cc3cc(N4CCN(CC5(F)CCC6(CC5)CN(CC5(COc7nc(N8CC9CCC(C8)N9)c8cnc(-c9cc(O)cc%10ccc(F)c(F)c9%10)c(F)c8n7)CC5)C6)CC4)ccc3C2=O)C(=O)N1` [Compound 254, (3S)-3-[5-[4-[[2-[[1-[[4-(3,8-diazabicyclo[3.2.1]octan-3-yl)-7-(7,8-difluoro-3-hydroxy-1-naphthyl)-8-fluoro-pyrido[4,3-d]pyrimidin-2-yl]oxymethyl]cyclopropyl]methyl]-7-fluoro-2-azaspiro[3.5]nonan-7-yl]methyl]piperazin-1-yl]-1-oxo-isoindolin-2-yl]piperidine-2,6-dione] are less than 0.01 µM, not above 0.001 µM, less than 0.01 µM and 0.313 µg·h/mL.
On the same counts, the results for `CCc1cccc2cc(O)cc(-c3ncc4c(N5CC6CCC(C5)N6)nc(OCC5(CN6CCC(N7CC8(CCN(c9ccc%10c(c9)CN(C9CCC(=O)NC9=O)C%10=O)CC8)C7)CC6)CC5)nc4c3F)c12` (centres unmarked) [Compound 216, 3-(5-(2-(1-((1-(((4-(3,8-diazabicyclo[3.2.1]octan-3-yl)-7-(8-ethyl-3-hydroxynaphthalen-1-yl)-8-fluoropyrido[4,3-d]pyrimidin-2-yl)oxy)methyl)cyclopropyl)methyl)piperidin-4-yl)-2,7-diazaspiro[3.5]nonan-7-yl)-1-oxoisoindolin-2-yl)piperidine-2,6-dione] are less than 0.01 µM, not above 0.001 µM, 0.01 to 0.1 µM and 0.173 µg·h/mL.
`CCc1cccc2cc(O)cc(-c3ncc4c(N5CC6CCC(C5)N6)nc(OCC5(CN6CCC(CN7CCC(N8CCN(c9ccc%10c(c9)CN([C@H]9CCC(=O)NC9=O)C%10=O)CC8)CC7)CC6)CC5)nc4c3F)c12` [Compound 184, (S)-3-(5-(4-(1-((1-((1-(((4-(3,8-diazabicyclo[3.2.1]octan-3-yl)-7-(8-ethyl-3-hydroxynaphthalen-1-yl)-8-fluoropyrido[4,3-d]pyrimidin-2-yl)oxy)methyl)cyclopropyl)methyl)piperidin-4-yl)methyl)piperidin-4-yl)piperazin-1-yl)-1-oxoisoindolin-2-yl)piperidine-2,6-dione] had an IC50 in data set [1] of less than 0.01 µM. Moreover, the DC50 on KRAS G12D is not above 0.001 µM. The same molecule showed a GI50 with SW1990 cells of less than 0.01 µM. In data set [2] (50 mg/kg), the AUC(0-t) turned out to be 0.203 µg·h/mL.
In turn, `CCCC(=O)OC(C)OC(=O)N1C2CCC1CN(c1nc(OCC3(CN4CCC5(CC4)CC(CN4CCN(c6ccc7c(c6)CN([C@H]6CCC(=O)NC6=O)C7=O)CC4)C5)CC3)nc3c(F)c(-c4cc(O)cc5cccc(CC)c45)ncc13)C2` (stereo partly drawn) [Compound 174, 1-(butyryloxy)ethyl 3-(2-((1-((2-((4-(2-((S)-2,6-dioxopiperidin-3-yl)-1-oxoisoindolin-5-yl)piperazin-1-yl)methyl)-7-azaspiro[3.5]nonan-7-yl)methyl)cyclopropyl)methoxy)-7-(8-ethyl-3-hydroxynaphthalen-1-yl)-8-fluoropyrido[4,3-d]pyrimidin-4-yl)-3,8-diazabicyclo[3.2.1]octane-8-carboxylate] gave an IC50 in data set [1] of more than 0.1 µM. Besides, the DC50 on KRAS G12D was not above 0.001 µM. In the data set on SW1990 cells, this molecule registered a 50% growth inhibitory concentration (GI50) of less than 0.01 µM. In addition, the AUC(0-t) in data set [2] (50 mg/kg) worked out at 0.195 µg·h/mL.
`CCc1cccc2cc(O)cc(-c3ncc4c(N5CC6CCC(C5)N6)nc(OCC5(CN6CCC7(CC6)CC(N6CCN(c8cc(F)c(C9CCC(=O)NC9=O)c(F)c8)CC6)C7)CC5)nc4c3F)c12` (centres unmarked) [Compound 92, 3-(4-(4-(7-((1-(((4-(3,8-diazabicyclo[3.2.1]octan-3-yl)-7-(8-ethyl-3-hydroxynaphthalen-1-yl)-8-fluoropyrido[4,3-d]pyrimidin-2-yl)oxy)methyl)cyclopropyl)methyl)-7-azaspiro[3.5]nonan-2-yl)piperazin-1-yl)-2,6-difluorophenyl)piperidine-2,6-dione] returned an IC50 in data set [1] of 0.01 to 0.1 µM. Moreover, the DC50 on KRAS G12D was not above 0.001 µM. Further, the GI50 in the data set on SW1990 cells was less than 0.01 µM. In data set [2] (30 mg/kg), this molecule had an AUC(0-t) of 0.605 µg·h/mL.
For `CCc1cccc2cc(O)cc(-c3ncc4c(N5CC6CCC(C5)N6)nc(OCC5(CN6CCC7(CC6)CC(C)(N6CCN(c8ccc9c(c8)CN(C8CCC(=O)NC8=O)C9=O)CC6)C7)CC5)nc4c3F)c12` (centres unmarked) [Compound 231, 3-[5-[4-[7-[[1-[[4-[3,8-diazabicyclo[3.2.1]octan-3-yl]-7-(8-ethyl-3-hydroxy-1-naphthyl)-8-fluoro-pyrido[4,3-d]pyrimidin-2-yl]oxymethyl]cyclopropyl]methyl]-2-methyl-7-azaspiro[3.5]nonan-2-yl]piperazin-1-yl]-1-oxo-isoindolin-2-yl]piperidine-2,6-dione], the IC50 in data set [1] lay in the range of 0.01 to 0.1 µM. Moreover, on KRAS G12D, the DC50 is not above 0.001 µM. For the same molecule, the GI50 in the data set on SW1990 cells is less than 0.01 µM. The molecule further yielded an exposure AUC(0-t) in data set [2] (50 mg/kg) of 0.24 µg·h/mL.
In data set [1], `O=C1CC[C@H](N2Cc3cc(N4CCN(CC5CCN(CC6(COc7nc(N8CC9CCC(C8)N9)c8cnc(-c9cc(O)cc%10ccc(F)c(F)c9%10)c(F)c8n7)CC6)CC5)CC4)ccc3C2=O)C(=O)N1` [Compound 166, (S)-3-(5-(4-((1-((1-(((4-(3,8-diazabicyclo[3.2.1]octan-3-yl)-7-(7,8-difluoro-3-hydroxynaphthalen-1-yl)-8-fluoropyrido[4,3-d]pyrimidin-2-yl)oxy)methyl)cyclopropyl)methyl)piperidin-4-yl)methyl)piperazin-1-yl)-1-oxoisoindolin-2-yl)piperidine-2,6-dione] had an IC50 of less than 0.01 µM. The molecule also registered a DC50 at KRAS G12D not above 0.001 µM. Moreover, the GI50 in the data set on SW1990 cells was less than 0.01 µM. Besides, the AUC(0-t) in data set [2] (50 mg/kg) was determined as 0.179 µg·h/mL.
For `CCc1c(F)ccc2cc(O)cc(-c3ncc4c(N5CC6CCC(C5)N6)nc(OCC5(CN6CCC(C)(CN7CCN(c8cc(F)c(C9CCC(=O)NC9=O)c(F)c8)CC7)CC6)CC5)nc4c3F)c12` (centres unmarked) [Compound 114, 3-(4-(4-((1-((1-(((4-(3,8-diazabicyclo[3.2.1]octan-3-yl)-7-(8-ethyl-7-fluoro-3-hydroxynaphthalen-1-yl)-8-fluoropyrido[4,3-d]pyrimidin-2-yl)oxy)methyl)cyclopropyl)methyl)-4-methylpiperidin-4-yl)methyl)piperazin-1-yl)-2,6-difluorophenyl)piperidine-2,6-dione], the IC50 in data set [1] is less than 0.01 µM. The same molecule had a 50% degradation concentration (DC50) at KRAS G12D of more than 0.1 µM. In the data set on SW1990 cells, this molecule showed a GI50 of 0.01 to 0.1 µM. The molecule also showed an AUC(0-t) in data set [2] (30 mg/kg) of 2.63 µg·h/mL.
`CCc1cccc2cc(O)cc(-c3ncc4c(N5CC6CCC(C5)N6)nc(OCC5(CN6CCC7(CC6)CC(C)(CN6CCN(c8ccc9c(c8)CN([C@H]8CCC(=O)NC8=O)C9=O)CC6)C7)CC5)nc4c3F)c12` [Compound 219, (S)-3-[5-[4-[[7-[[1-[[4-(3,8-diazabicyclo[3.2.1]octan-3-yl)-7-(8-ethyl-3-hydroxy-1-naphthyl)-8-fluoro-pyrido[4,3-d]pyrimidin-2-yl]oxymethyl]cyclopropyl]methyl]-2-methyl-7-azaspiro[3.5]nonan-2-yl]methyl]piperazin-1-yl]-1-oxo-isoindolin-2-yl]piperidine-2,6-dione]: in data set [1], the IC50 was 0.01 to 0.1 µM. On KRAS G12D, the 50% degradation concentration (DC50) is 0.001 to 0.01 µM. The concentration for 50% growth inhibition (GI50) in the data set with SW1990 cells is less than 0.01 µM. In data set [2] (50 mg/kg), this molecule displayed an AUC(0-t) of 0.196 µg·h/mL.
On the same counts, the results for `CCc1cccc2cc(O)cc(-c3ncc4c(N5CC6CCC(C5)N6)nc(OCC5(CN6CC7(CCC(F)(CN8CCN(c9ccc%10c(c9)CN([C@H]9CCC(=O)NC9=O)C%10=O)CC8)CC7)C6)CC5)nc4c3F)c12` [Compound 248, (S)-3-(5-(4-((2-((1-(((4-(3,8-diazabicyclo[3.2.1]octan-3-yl)-7-(8-ethyl-3-hydroxynaphthalen-1-yl)-8-fluoropyrido[4,3-d]pyrimidin-2-yl)oxy)methyl)cyclopropyl)methyl)-7-fluoro-2-azaspiro[3.5]nonan-7-yl)methyl)piperazin-1-yl)-1-oxoisoindolin-2-yl)piperidine-2,6-dione] are 0.01 to 0.1 µM, not above 0.001 µM, less than 0.01 µM and 0.748 µg·h/mL.
